This is an account of results in patent US10870634B2, “Histone demethylase inhibitors” (CELGENE QUANTICEL RESEARCH, INC., priority 2016, dated 2020).

Each structure is given as a SMILES string.

The target of this test is T1, FBXL10 (Homo sapiens, UniProt Q8NHM5).
T1 construct: purchased BPS Bioscience 50120
T1 sequence (Q8NHM5 1-650): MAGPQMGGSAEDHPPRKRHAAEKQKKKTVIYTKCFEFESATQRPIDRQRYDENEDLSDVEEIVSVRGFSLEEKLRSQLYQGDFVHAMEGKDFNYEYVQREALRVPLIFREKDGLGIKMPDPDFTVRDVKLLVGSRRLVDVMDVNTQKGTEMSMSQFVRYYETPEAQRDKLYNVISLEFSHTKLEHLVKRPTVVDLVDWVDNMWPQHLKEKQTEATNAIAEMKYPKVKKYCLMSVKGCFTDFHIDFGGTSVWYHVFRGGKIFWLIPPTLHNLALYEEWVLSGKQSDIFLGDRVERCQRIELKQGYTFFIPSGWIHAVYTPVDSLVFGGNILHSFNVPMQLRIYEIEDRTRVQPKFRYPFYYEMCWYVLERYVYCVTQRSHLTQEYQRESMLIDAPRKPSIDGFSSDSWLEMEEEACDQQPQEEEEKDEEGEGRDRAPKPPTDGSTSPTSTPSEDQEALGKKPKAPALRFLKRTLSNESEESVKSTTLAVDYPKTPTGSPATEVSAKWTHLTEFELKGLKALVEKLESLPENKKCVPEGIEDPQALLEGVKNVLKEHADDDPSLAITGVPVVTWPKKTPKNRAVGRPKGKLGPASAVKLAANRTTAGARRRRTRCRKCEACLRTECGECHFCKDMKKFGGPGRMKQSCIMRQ
Put plainly: FBXL10 in vitro enzyme inhibition assay (AlphaScreen). It counts as biochemical. Conditions: 0.3 nM FBXL10, 30 nM H3K36me2-biotin peptide, 0.2 μM alpha-ketoglutaric acid. From the text:
This assay determines the ability of a test compound to inhibit FBXL11, FRXL10, and PHF8 demethylase activity. Baculovirus-expressed FBXL11 (GenBank Accession # NM_012308, AA1-1162) was purchased from BPS Bioscience (Cat #50102). Baculovirus-expressed FBXL10 (GenBank Accession # NM_032590, AA 1-650) was purchased from BPS Bioscience (Cat #50120), Baculovirus-expressed PHF8 (GenBank Accession NP_055922.1) was purchased from Active Motif (Cat #31435).
The ability of test compounds to inhibit the activity of FBXM10 was determined in 384-well plate format under the following reaction conditions: 0.3 nM FBXL10, 30 nM H3K36me2-biotin labeled peptide (Anaspec cat #64442), 0.2 μM alpha-ketoglutaric acid in assay buffer of 50 mM HEPES, pH 7.3, 0.005% Brij35, 0.5 mM TCEP, 0.2 mg/ml BSA, 50 μM sodium L-ascorbate, 5 μM ammonium ironll sulfate. Reaction product was determined quantitatively by AlphaScreen detection after the addition of detection reagents anti-H3K36me1 antibody, AlphaScreen® Streptavidin-coated Donor beads, and AlphaScreen® Protein A Acceptor beads in 50 mM HEPES, pH 7.3, 10 mM NaCl, 0.005% Brij35, 5 mM EDTA, 2 mg/ml BSA to a final 10 μg/ml beads.
The assay reaction was initiated by the following: 3 μl of the mixture of 90 nM H3K36me2-biotin labeled peptide and 0.6 μM alpha-ketoglutaric acid with 3 μl of 11-point serial diluted inhibitor in 3% DMSO were added to each well of 384-well Proxiplate (Perkin Elmer), followed by e addition of 3 μl of 0.9 nM FBXL10 to initiate the reaction. The reaction mixture was incubated at room temp for 1 hr. and terminated by the addition of 3 μl of appropriate dilution of anti-H3K36me1 antibody in 50 mM HEPES, pH 7.3, 10 mM NaCl, 0.005% Brij35, 5 mM EDTA, and 2 mg/ml BSA. […] Plates were read by EnVision Multilabel Reader in AlphaScreen mode after minimum 2 hr incubation at room temp. […]
The ability to inhibit demethylase activity was quantified and the respective IC50 value was determined for substituted triazolylpyridine derivative compounds. […]
(In general: In Alpha technology, singlet oxygen from a donor bead excites a nearby acceptor bead.)
Usually IC50 stands for the midpoint of a concentration-inhibition curve. Read a low IC50 as greater potency in that assay. Take `Fc1ccc(Cl)cc1Nc1cnccc1-c1nn[nH]c1C(F)(F)F` [Example 2, N-(5-chloro-2-fluorophenyl)-4-[5-(trifluoromethyl)-1H-1,2,3-triazol-4-yl]pyridin-3-amine]: the IC50 lay in the range of 1000 to 10000 nM.

With `FC(F)(F)c1[nH]nnc1-c1ccncc1NCC1CCCc2ccccc21` (stereo not drawn) [Example 3, N-[(1,2,3,4-tetrahydronaphthalen-1-yl)methyl]-4-[5-(trifluoromethyl)-1H-1,2,3-triazol-4-yl]pyridine-3-amine], the IC50 was 1000 to 10000 nM.

For `Fc1cnccc1-c1nn[nH]c1C(F)(F)F` [Example 1, 3-fluoro-4-[5-(trifluoromethyl)-1H-1,2,3-triazol-4-yl]pyridine], the IC50 is 100 to 1000 nM.
